According to ChEMBL document CHEMBL1201862, “PubChem BioAssay data set” (2004):
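A five-concentration, 48-hour dose response in 96-well plates underlies each endpoint, interpolated linearly between surrounding concentrations. Here, GI50 denotes the concentration required for 50% inhibition of growth.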 Activity calls are given as the source filed them. Cut-off read from the data, not from the text of the source: active = GI50 up to about 1.1 µM and inactive = higher.

Columns and labels:
Assay in all cases: growth of human tumour cells (NCI), 48 h
786-0 = test system: 786-0
A498 = test system: A498
A549 = test system: A549
ACHN = test system: ACHN
BT-549 = test system: BT-549
CAKI-1 = test system: CAKI-1
CCRF-CEM = test system: CCRF-CEM
COLO 205 = test system: COLO 205
DU-145 = test system: DU-145
EKVX = test system: EKVX
HCC 2998 = test system: HCC 2998
HCT-116 = test system: HCT-116
HCT-15 = test system: HCT-15
HL-60 = test system: HL-60
HOP-62 = test system: HOP-62
HOP-92 = test system: HOP-92
HT-29 = test system: HT-29
Hs-578T = test system: Hs-578T
IGROV-1 = test system: IGROV-1
K562 = test system: K562
KM12 = test system: KM12
LOX IMVI = test system: LOX IMVI
M14 = test system: M14
MCF7 = test system: MCF7
MDA-MB-231 = test system: MDA-MB-231
MDA-MB-435 = test system: MDA-MB-435
MDA-N = test system: MDA-N
MOLT-4 = test system: MOLT-4
Malme-3M = test system: Malme-3M
NCI-H226 = test system: NCI-H226
NCI-H23 = test system: NCI-H23
NCI-H460 = test system: NCI-H460
NCI-H522 = test system: NCI-H522
NCI/ADR-RES = test system: NCI/ADR-RES
OVCAR-3 = test system: OVCAR-3
OVCAR-4 = test system: OVCAR-4
OVCAR-5 = test system: OVCAR-5
OVCAR-8 = test system: OVCAR-8
RXF 393 = test system: RXF 393
SF-268 = test system: SF-268
SF-295 = test system: SF-295
SF-539 = test system: SF-539
SK-MEL-28 = test system: SK-MEL-28
SK-MEL-2 = test system: SK-MEL-2
SK-MEL-5 = test system: SK-MEL-5
SK-OV-3 = test system: SK-OV-3
SN12C = test system: SN12C
SNB-75 = test system: SNB-75
SR = test system: SR
SW-620 = test system: SW-620
T47D = test system: T47D
TK-10 = test system: TK-10
U-251 = test system: U-251
UACC-257 = test system: UACC-257
UACC-62 = test system: UACC-62
UO-31 = test system: UO-31
PC-3 = test system: PC-3
RPMI-8226 = test system: RPMI-8226
SNB-19 = test system: SNB-19

In the case of `S=C1NCCN1C(=S)Nc1ccccc1`, the GI50 (786-0) is reported as > 100 µM (inactive), the GI50 (A498) is reported as 32.4 µM (inactive) and the GI50 (A549) is reported as 44.1 µM (inactive). For the same compound, the GI50 (ACHN) was > 100 µM (inactive), the GI50 (BT-549) was 83 µM (inactive) and the GI50 (CAKI-1) was 46.8 µM (inactive). For the same compound, the GI50 (CCRF-CEM) was 62.2 µM (inactive), the GI50 (COLO 205) was 71.6 µM (inactive) and the GI50 (DU-145) was > 100 µM (inactive). The GI50 (EKVX) was 33.9 µM (inactive), the GI50 (HCC 2998) was 65.5 µM (inactive) and the GI50 (HCT-116) was 91.2 µM (inactive). For the same compound, the GI50 (HCT-15) was 68.9 µM, the GI50 (HL-60) was > 100 µM (inactive) and the GI50 (HOP-62) was > 100 µM (inactive). For the same compound, the GI50 (HOP-92) was 66.8 µM (inactive), the GI50 (HT-29) was > 100 µM (inactive) and the GI50 (Hs-578T) was 84.1 µM (inactive). The GI50 (IGROV-1) was > 100 µM (inactive), the GI50 (K562) was 74.6 µM (inactive) and the GI50 (KM12) was 49.9 µM (inactive). For the same compound, the GI50 (LOX IMVI) was > 100 µM (inactive), the GI50 (M14) was 61.5 µM (inactive) and the GI50 (MCF7) was > 100 µM (inactive). For the same compound, the GI50 (MDA-MB-231) was > 100 µM (inactive), the GI50 (MDA-MB-435) was 46.5 µM (inactive) and the GI50 (MDA-N) was > 100 µM (inactive). For the same compound, the GI50 (MOLT-4) was 34.8 µM (inactive), the GI50 (Malme-3M) was > 100 µM (inactive) and the GI50 (NCI-H226) was 51.4 µM (inactive). For the same compound, the GI50 (NCI-H23) was 60.4 µM (inactive), the GI50 (NCI-H460) was 89.5 µM (inactive) and the GI50 (NCI-H522) was 60.8 µM (inactive). The GI50 (NCI/ADR-RES) was > 100 µM (inactive), the GI50 (OVCAR-3) was 90.8 µM (inactive) and the GI50 (OVCAR-4) was 21.9 µM (inactive). The GI50 (OVCAR-5) was > 100 µM (inactive), the GI50 (OVCAR-8) was > 100 µM (inactive) and the GI50 (RXF 393) was 10.5 µM (inactive). The GI50 (SF-268) was 99.5 µM (inactive), the GI50 (SF-295) was > 100 µM (inactive) and the GI50 (SF-539) was 46.3 µM (inactive). The GI50 (SK-MEL-28) was 56.2 µM (inactive), the GI50 (SK-MEL-2) was > 100 µM (inactive) and the GI50 (SK-MEL-5) was > 100 µM (inactive). For the same compound, the GI50 (SK-OV-3) was > 100 µM (inactive), the GI50 (SN12C) was > 100 µM (inactive) and the GI50 (SNB-75) was 32.4 µM (inactive). The GI50 (SR) was 42.4 µM (inactive), the GI50 (SW-620) was > 100 µM (inactive) and the GI50 (T47D) was 40.1 µM (inactive). The GI50 (TK-10) was 95.9 µM (inactive), the GI50 (U-251) was > 100 µM (inactive) and the GI50 (UACC-257) was 96.2 µM (inactive). For the same compound, the GI50 (UACC-62) was 96.8 µM (inactive) and the GI50 (UO-31) was 36.7 µM (inactive).

In the case of `O=c1[nH]nc(-c2ccccc2)n1/N=C/c1cccs1`, the GI50 (786-0) is reported as 91.4 µM (inactive), the GI50 (A498) is reported as 54.2 µM (inactive) and the GI50 (A549) is reported as 52.4 µM (inactive). The GI50 (ACHN) was 70 µM (inactive), the GI50 (BT-549) was 27.5 µM (inactive) and the GI50 (CAKI-1) was > 100 µM (inactive). For the same compound, the GI50 (CCRF-CEM) was 43.1 µM (inactive), the GI50 (COLO 205) was 19.5 µM (inactive) and the GI50 (DU-145) was 32.3 µM (inactive). For the same compound, the GI50 (EKVX) was 83.6 µM (inactive), the GI50 (HCC 2998) was > 100 µM (inactive) and the GI50 (HCT-116) was 36.7 µM (inactive). The GI50 (HCT-15) was 44.3 µM, the GI50 (HOP-62) was > 100 µM (inactive) and the GI50 (HT-29) was 65.5 µM (inactive). The GI50 (Hs-578T) was 56 µM (inactive), the GI50 (K562) was 38.1 µM (inactive) and the GI50 (KM12) was > 100 µM (inactive). For the same compound, the GI50 (LOX IMVI) was 43.2 µM (inactive), the GI50 (M14) was > 100 µM (inactive) and the GI50 (MCF7) was 46.6 µM (inactive). The GI50 (MDA-MB-231) was > 100 µM (inactive), the GI50 (MDA-MB-435) was 28.2 µM (inactive) and the GI50 (MDA-N) was 74.8 µM (inactive). The GI50 (MOLT-4) was 31.6 µM (inactive), the GI50 (Malme-3M) was 62.5 µM (inactive) and the GI50 (NCI-H226) was 59.4 µM (inactive). The GI50 (NCI-H23) was 36.6 µM (inactive), the GI50 (NCI-H460) was 36.3 µM (inactive) and the GI50 (NCI/ADR-RES) was 32.7 µM (inactive). The GI50 (OVCAR-3) was > 100 µM (inactive), the GI50 (OVCAR-4) was 21.7 µM (inactive) and the GI50 (OVCAR-5) was > 100 µM (inactive). For the same compound, the GI50 (OVCAR-8) was 37.4 µM (inactive), the GI50 (PC-3) was 66.1 µM (inactive) and the GI50 (RPMI-8226) was 27.1 µM (inactive). The GI50 (RXF 393) was 37.3 µM (inactive), the GI50 (SF-268) was > 100 µM (inactive) and the GI50 (SF-295) was 72.3 µM (inactive). For the same compound, the GI50 (SF-539) was 95.5 µM (inactive), the GI50 (SK-MEL-28) was 86.9 µM (inactive) and the GI50 (SK-MEL-2) was 99.5 µM (inactive). For the same compound, the GI50 (SK-OV-3) was > 100 µM (inactive), the GI50 (SN12C) was 46.8 µM (inactive) and the GI50 (SNB-19) was > 100 µM (inactive). For the same compound, the GI50 (SNB-75) was 49.7 µM (inactive), the GI50 (SW-620) was 82 µM (inactive) and the GI50 (T47D) was 38.1 µM (inactive). For the same compound, the GI50 (U-251) was > 100 µM (inactive), the GI50 (UACC-257) was 56.8 µM (inactive) and the GI50 (UACC-62) was 46.7 µM (inactive). The GI50 (UO-31) was 58.3 µM (inactive).
